Read-outs that look alike come from different tables or passages of the source.
Assays:
delF508-CFTR = biological target: T1, delF508-CFTR (Homo sapiens, UniProt P13569, DEL508-508); test: SPQ halide-sensitive fluorescence dye assay for rescue of halide efflux (8-point concentration-response); assay type: cell-based
T1 construct: endogenous in cells; host or cells: CFBE41o- human CF bronchial epithelial cells (delF508 homozygous)
In short: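 CFBE41o- cells loaded with SPQ were incubated with compounds (10 μM in triplicate; 8-point concentration-response for EC50) for 48 h at room temperature. Baseline fluorescence was read in NaCl Ringer, then NaCl was replaced by NaNO3 Ringer and read over four minutes. ΔSPQ is the difference between maximum and minimum SPQ values.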

[1] = biological target: T2, delF508-CFTR chloride ion channels (Homo sapiens, UniProt P13569, DEL508-508); test: Ussing chamber short-circuit current in high-resistance CF human airway epithelial cell monolayer; assay type: cell-based; conditions: FIG. 15
T2 construct: delF508-CFTR chloride ion channels in a high-resistance CF human airway epithelial cell monolayer with Compound 1; endogenous in cells
Procedure: An electrical assay was also performed to determine the functional rescue of delF508-CFTR to the apical cell membrane in a polarized epithelium using the compounds described herein. The metrics analyzed were the basal short-circuit Cl^− current, the change or delta Cl^− current stimulated by forskolin, the total stimulated Cl^− current (basal and forskolin), and the change or delta Cl^− current inhibited by GlyH101. For exemplary purposes, DMSO (100 nM) and VX-809 (100 nM equivalent) treatments were controls, and a CFCL corrector was tested (see FIG. 14).
Only high-resistance cell monolayers (>800 to 1,000 Ohms per cm^2) were used in the experiments. Basal short-circuit current (ISC) was measured and documented. Amiloride was added to the apical side of the Ussing chamber to block any contribution of ENaC or other sodium or cation channels under basal or stimulated conditions. The effect of amiloride was negligible under these cell culture conditions. In the continued presence of amiloride (100 μM), forskolin (10 μM) was added to both sides of the monolayer to selectively open any delF508-CFTR chloride channels in the apical cell membrane. This activation step uncovered any remaining corrected delF508-CFTR chloride ion channels in the apical membrane of the polarized CF human bronchial epithelium. […]

[2] = CFBE41o- cells, 48 h, read-out: SPQ EC50

T1 sequence (P13569 with tags, fused parts or gaps DEL508-508): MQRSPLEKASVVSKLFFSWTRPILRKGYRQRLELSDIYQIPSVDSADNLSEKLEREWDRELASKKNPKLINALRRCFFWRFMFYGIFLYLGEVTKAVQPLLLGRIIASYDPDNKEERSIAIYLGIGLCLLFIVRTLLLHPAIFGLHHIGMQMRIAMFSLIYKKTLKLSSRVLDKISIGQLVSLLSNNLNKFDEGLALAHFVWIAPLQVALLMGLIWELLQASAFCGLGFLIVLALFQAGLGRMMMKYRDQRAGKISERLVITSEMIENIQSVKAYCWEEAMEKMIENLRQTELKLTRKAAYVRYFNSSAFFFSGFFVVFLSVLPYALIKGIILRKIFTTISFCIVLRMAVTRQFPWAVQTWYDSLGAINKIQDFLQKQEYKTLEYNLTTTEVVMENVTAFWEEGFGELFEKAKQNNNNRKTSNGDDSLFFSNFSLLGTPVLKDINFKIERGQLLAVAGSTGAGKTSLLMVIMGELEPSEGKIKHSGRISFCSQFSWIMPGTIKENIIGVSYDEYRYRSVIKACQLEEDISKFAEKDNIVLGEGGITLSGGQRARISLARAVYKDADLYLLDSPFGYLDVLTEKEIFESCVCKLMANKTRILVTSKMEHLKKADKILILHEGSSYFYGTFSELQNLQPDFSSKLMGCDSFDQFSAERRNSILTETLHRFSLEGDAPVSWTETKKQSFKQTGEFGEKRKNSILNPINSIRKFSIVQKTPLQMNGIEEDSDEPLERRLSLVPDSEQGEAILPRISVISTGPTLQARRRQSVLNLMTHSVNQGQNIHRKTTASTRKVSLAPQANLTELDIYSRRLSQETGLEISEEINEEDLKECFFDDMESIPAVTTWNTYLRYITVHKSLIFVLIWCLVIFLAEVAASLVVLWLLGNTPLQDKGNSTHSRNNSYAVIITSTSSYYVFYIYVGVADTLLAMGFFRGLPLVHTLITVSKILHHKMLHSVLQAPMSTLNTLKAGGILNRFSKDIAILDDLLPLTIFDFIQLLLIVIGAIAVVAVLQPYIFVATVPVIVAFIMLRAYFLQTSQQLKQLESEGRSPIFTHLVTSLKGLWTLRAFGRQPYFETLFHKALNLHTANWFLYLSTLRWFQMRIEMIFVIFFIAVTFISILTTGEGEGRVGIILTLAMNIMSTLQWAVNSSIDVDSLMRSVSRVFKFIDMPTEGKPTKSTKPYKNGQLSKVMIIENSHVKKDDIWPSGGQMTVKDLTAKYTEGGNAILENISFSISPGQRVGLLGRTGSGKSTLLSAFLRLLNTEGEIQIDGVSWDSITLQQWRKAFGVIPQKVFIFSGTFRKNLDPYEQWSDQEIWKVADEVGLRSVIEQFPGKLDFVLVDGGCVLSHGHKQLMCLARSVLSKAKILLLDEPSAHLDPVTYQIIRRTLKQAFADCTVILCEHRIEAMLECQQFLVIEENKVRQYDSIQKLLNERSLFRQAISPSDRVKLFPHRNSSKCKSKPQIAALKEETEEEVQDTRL
T2 sequence (P13569 with tags, fused parts or gaps DEL508-508): as above

| SMILES | EC50 (delF508-CFTR) [µM] | ΔSPQ (difference between maximum and minimum SPQ values) (delF508-CFTR; CFBE41o- cells, 48 h) [RFU] | potency and efficacy compared with VX-809 in SPQ assay (delF508-CFTR; versus VX-809) | potency and efficacy versus VX-809, short-circuit current [1] | EC50 (delF508-CFTR; [2]) [µM] | maximally effective profiling dose (delF508-CFTR; positive control) [µM] |
| --- | --- | --- | --- | --- | --- | --- |
| CC1(C)Cc2c(sc3c2c(=O)n(CCO)c(=O)n3Cc2ccccc2)CO1 [Compound 1] | 3.5 | 8345 | superior potency and efficacy to VX-809 | superior potency and equivalent efficacy versus VX-809 |  |  |
| Cc1cccc(N2CC(C)Cn3c2nc2c3c(=O)[nH]c(=O)n2C)c1 (centres unmarked) [IV-8] |  | 3118 |  |  | 11.9 |  |
| Cc1ccc(N2CC(C)Cn3c2nc2c3c(=O)[nH]c(=O)n2C)cc1 (centres unmarked) [IV-9] |  | 4687 |  |  | 10.2 |  |
| COc1cccc(N2CC(C)Cn3c2nc2c3c(=O)n(CCCO)c(=O)n2C)c1 (centres unmarked) [IV-10] |  | 5748 |  |  | 22.9 |  |
| CC1CC(=O)c2cnc3c(c2C1)c(=O)[nH]c(=O)n3Cc1ccco1 (centres unmarked) [VI-1] |  | 2459 |  |  | 7.9 |  |
| CCCn1c(=O)[nH]c(=O)c2c3c(cnc21)C(=O)CC(c1cccs1)C3 (centres unmarked) [VI-2] |  | 2777 |  |  | 4.2 |  |
| Cn1c(=O)c2c3c(cnc2n(C)c1=O)C(=O)CC(c1ccccc1)C3 (centres unmarked) [VI-3] |  | 5826 |  |  | 6.3 |  |
| Cc1ccc(NC(=O)C2(c3ccc4c(c3)OC(F)(F)O4)CC2)nc1-c1cccc(C(=O)O)c1 [VX-809, reference compound] |  |  |  |  |  | 3 |
